Results reported in BigSolDB 2.1.

CC[C@@H](C(=O)[C@@H](C)[C@@H](O)[C@H](C)CCc1ccc(C)c(O)c1C(=O)[O-])[C@H]1O[C@](CC)([C@H]2CC[C@](O)(CC)[C@H](C)O2)C[C@@H]1C.[Na+]
solubility (mole fraction)
Settings	283.15 K	288.15 K	293.15 K	298.15 K	303.15 K	308.15 K	313.15 K	318.15 K	323.15 K
in acetone	0.0117	0.0119	0.0121	0.0123	0.0125	0.0127	0.0129	0.0132	0.0135
in ethanol	0.00223	0.00246	0.0026	0.00311	0.00364	0.00419	0.00456	0.00502	0.00564
in ethyl acetate	0.00531	0.00538	0.00548	0.00556	0.00566	0.00575	0.00587	0.00596	0.00602
in isopropanol	0.00085	0.00095	0.00106	0.00117	0.00136	0.00161	0.00191	0.00211	0.00233
in methanol	0.00259	0.00293	0.0031	0.00352	0.00391	0.00413	0.00456	0.00508	0.00577
